# Entries after “also recorded” stand apart in the source; their conditions may differ. Like-named read-outs stand apart in the source and are kept apart here.
# Details: for Comments: stability of the polymorph: Table 3, solid polymorph of brequinar sodium salt on storage; for Time after which the polymorph converts to Pattern C / Stability of the polymorphic form under ambient conditions (temperature and humidity): sodium salt; for Stability of the polymorphic form under ambient conditions (temperature and humidity): unstable forms convert to Pattern C
SMILES,Comments: stability of the polymorph,Time after which the polymorph converts to Pattern C (closed cap storage),Stability of the polymorphic form under ambient conditions (temperature and humidity),Time after which the polymorph converts to Pattern C (at ambient condition),Stability of the polymorphic form under ambient conditions (temperature and humidity) (listed as polymorphic form C)
"Cc1c(-c2ccc(-c3ccccc3F)cc2)nc2ccc(F)cc2c1C(=O)[O-].[Na+] [Pattern J, 6-Flouro-2-(2′-fluoro-1,1′-biphenyl-4-yl)-3-methyl-4-quinolinecarboxylic acid sodium salt]","Unstable, convert to Pattern",C after 2 weeks (closed cap,unstable,,
"Cc1c(-c2ccc(-c3ccccc3F)cc2)nc2ccc(F)cc2c1C(=O)[O-].[Na+] [Pattern D, 6-Flouro-2-(2′-fluoro-1,1′-biphenyl-4-yl)-3-methyl-4-quinolinecarboxylic acid sodium salt]",,,unstable,C after 3 days at ambient,
"Cc1c(-c2ccc(-c3ccccc3F)cc2)nc2ccc(F)cc2c1C(=O)[O-].[Na+] [Pattern I, 6-Flouro-2-(2′-fluoro-1,1′-biphenyl-4-yl)-3-methyl-4-quinolinecarboxylic acid sodium salt]","KF 7.3%, unstable,",,unstable,2 days at ambient condition.,
"Cc1c(-c2ccc(-c3ccccc3F)cc2)nc2ccc(F)cc2c1C(=O)[O-].[Na+] [Pattern G, 6-Flouro-2-(2′-fluoro-1,1′-biphenyl-4-yl)-3-methyl-4-quinolinecarboxylic acid sodium salt]","15.3%), unstable, convert",,unstable,to Pattern C after 2 weeks,
"Cc1c(-c2ccc(-c3ccccc3F)cc2)nc2ccc(F)cc2c1C(=O)[O-].[Na+] [Pattern E, 6-Flouro-2-(2′-fluoro-1,1′-biphenyl-4-yl)-3-methyl-4-quinolinecarboxylic acid sodium salt]",,Pattern C after 1 week,unstable,,
"Cc1c(-c2ccc(-c3ccccc3F)cc2)nc2ccc(F)cc2c1C(=O)[O-].[Na+] [Pattern C, 6-Flouro-2-(2′-fluoro-1,1′-biphenyl-4-yl)-3-methyl-4-quinolinecarboxylic acid sodium salt]",,,,,stable; also recorded: most stable
"Cc1c(-c2ccc(-c3ccccc3F)cc2)nc2ccc(F)cc2c1C(=O)[O-].[Na+] [Pattern A, 6-Flouro-2-(2′-fluoro-1,1′-biphenyl-4-yl)-3-methyl-4-quinolinecarboxylic acid sodium salt]",,,metastable,,
"Cc1c(-c2ccc(-c3ccccc3F)cc2)nc2ccc(F)cc2c1C(=O)[O-].[Na+] [Pattern B, 6-Flouro-2-(2′-fluoro-1,1′-biphenyl-4-yl)-3-methyl-4-quinolinecarboxylic acid sodium salt]","hydrate KF 4.8% unstable,",,unstable,convert to Pattern C after 4 days,
"Cc1c(-c2ccc(-c3ccccc3F)cc2)nc2ccc(F)cc2c1C(=O)[O-].[Na+] [Pattern F, 6-Flouro-2-(2′-fluoro-1,1′-biphenyl-4-yl)-3-methyl-4-quinolinecarboxylic acid sodium salt]",,Pattern C after 1 week,unstable,,

# Source: patent US12076315B2 (Clear Creek Bio, Inc., priority 2020, dated 2024)
